From patent publication US6184333A, “Low-toxicity, high-temperature polyimides” (Maverick Corporation, priority 1999, dated 2001)

Key:
rat [1] = details: cited from earlier work
[2] = with and without metabolic activation; cited from earlier work
rat [3] = experiment: Acute oral LD50; format: in vivo; details: vs. MDA
Description: Except for BAX, the advantages of these diamines include low cost (<$50/pound) as well as low toxicity. […] (ADD IN FNOTE 19) Table I compares the toxicological data of MDA vs. That of Bisaninine-P and Bisaniline-M. In addition, the Ames Mutagenicity Assays for Bisaniline-P and Bisaniline-M were negative with and without metabolic activation. (ID)

rat [4] = details: cited from earlier work; remark: listed apart in the source
[5] = cited from earlier work; for Carcinogenicity: animals, where stated; for Toxicity: in vivo
Solubility in methanol = format: physicochemical
Description: A matrix of polyirnide copolymers was synthesized by using Bisaniline-P, Bisaniline-M, and paraphenylenediamine (PPDA). Partial molar substitutions of PPDA (up to 50 mole percent) were used in order to increase glass transition temperatuer and/or thermal oxidative stability. Pre-polymer molecular weight was also adjusted to favorably impact processing parameters as well as the final Tg. Each copolymer was formulated at a molar ratio of 2 NE: 2 BTDE: 3 Diamine. All of the resin systems were synthesized using standard techniques known in the industry. In some of the BIS-P formulations, n-methylpyrrilidinone (NMP) was used as a solvent in addition to methanol. This was done in order to maintain the solubility of the fairly large molecular-weight BIS-P diamine. […] A detailed description of the low-toxicity polyimnide systems that were developed is shown below in Table IV.

rabbit skin = details: cited from earlier work

CC(C)(c1ccc(N)cc1)c1ccc(C(C)(C)c2ccc(N)cc2)cc1 [BIS-P, 4,4'-(1,4-phenylene-bis(1-methylethylidene))bisaniline]
Acute Dermal LD50 (rat [1]): > 2,000 mg/kg
Ames Mutagenicity Assay [2]: negative
Acute oral LD50 compared with that of MDA (rat [3]): more than ten times higher
Acute Oral LD50 (rat [4]): > 5,000 mg/kg

Nc1ccc(Cc2ccc(N)cc2)cc1 [MDA, 4,4'-methylenedianiline, reference compound]
Acute Dermal LD50 (rat [1]): 200 mg/kg
Carcinogenicity [5]: known animal carcinogen
Human carcinogenicity ([5]; human): suspected human carcinogen
Toxicity [5]: known kidney and liver toxin
Acute Oral LD50 (rat [4]): 347 mg/kg

CC(C)(c1ccc(N)cc1)c1cccc(C(C)(C)c2ccc(N)cc2)c1 [BIS-M, 4,4'-(1,3-phenylene-bis(1-methylethylidene))bisaniline]
Solubility in methanol (Solubility in methanol): readily soluble
Ames Mutagenicity Assay [2]: negative
Acute oral LD50 compared with that of MDA (rat [3]): more than ten times higher
Skin irritation (printed in the Acute Dermal LD50 line) (rabbit skin): Non-irritating
Acute Oral LD50 (rat [4]): 6,240 mg/kg

Nc1ccc(N)cc1 [PPDA, para-phenylenediamine]
Carcinogenicity [5]: no carcinogenic activity in animals

CC(C)(c1ccc(Oc2ccc(N)cc2)cc1)c1ccc(Oc2ccc(N)cc2)cc1 [BAPP, 2,2-bis(4-[4-aminophenoxyl]phenyl) propane]
Carcinogenicity [5]: non-carcinogenic
Toxicity [5]: non-toxic
